Reference: the NIST ThermoML archive (doi:10.1016/j.fluid.2011.11.022)
Numbers after ± are expanded uncertainties.

Experiment: wn = mass fraction of the nth substance listed
Settings: Liquid, w2 = 0.5; for mass density: Buoyancy - hydrostatic balance; for viscosity: Falling or rolling sphere viscometry

OCCOCCOCCO [triethylene glycol] + OCCOCCO
mass density (298.15 K, 98 kPa): 1116.28 ± 6.7 kg/m3
viscosity (298.15 K, 98 kPa): 32.4 ± 1.3 mPa·s
mass density (298.15 K, 49030 kPa): 1140.16 ± 6.8 kg/m3
viscosity (298.15 K, 49030 kPa): 48.05 ± 2 mPa·s
mass density (298.15 K, 98060 kPa): 1157.54 ± 7 kg/m3
viscosity (298.15 K, 98060 kPa): 68.97 ± 2.9 mPa·s
mass density (298.15 K, 196130 kPa): 1186.23 ± 7.1 kg/m3
viscosity (298.15 K, 196130 kPa): 134.9 ± 6.8 mPa·s
mass density (322.18 K, 196130 kPa): 1172.01 ± 7 kg/m3
viscosity (322.18 K, 196130 kPa): 39.19 ± 1.6 mPa·s
mass density (322.32 K, 98060 kPa): 1143.4 ± 6.9 kg/m3
viscosity (322.32 K, 98060 kPa): 22.33 ± 0.92 mPa·s
mass density (322.38 K, 49030 kPa): 1125.8 ± 6.8 kg/m3
viscosity (322.38 K, 49030 kPa): 16.39 ± 0.67 mPa·s
mass density (322.43 K, 98 kPa): 1104.5 ± 6.6 kg/m3
viscosity (322.43 K, 98 kPa): 11.71 ± 0.48 mPa·s
mass density (355.15 K, 98 kPa): 1083.98 ± 6.5 kg/m3
viscosity (355.15 K, 98 kPa): 4.468 ± 0.18 mPa·s
mass density (355.59 K, 49030 kPa): 1103.74 ± 6.6 kg/m3
viscosity (355.59 K, 49030 kPa): 5.935 ± 0.24 mPa·s
mass density (355.77 K, 98060 kPa): 1122.4 ± 6.7 kg/m3
viscosity (355.77 K, 98060 kPa): 7.663 ± 0.32 mPa·s
mass density (355.95 K, 196130 kPa): 1151.5 ± 6.9 kg/m3
viscosity (355.95 K, 196130 kPa): 12.1 ± 0.5 mPa·s
mass density (391.02 K, 98 kPa): 1055.33 ± 6.3 kg/m3
viscosity (391.02 K, 98 kPa): 2.179 ± 0.089 mPa·s
mass density (391.29 K, 49030 kPa): 1076.96 ± 6.5 kg/m3
viscosity (391.29 K, 49030 kPa): 2.772 ± 0.11 mPa·s
mass density (391.39 K, 98060 kPa): 1098.19 ± 6.6 kg/m3
viscosity (391.39 K, 98060 kPa): 3.484 ± 0.14 mPa·s
mass density (391.57 K, 196130 kPa): 1129.2 ± 6.8 kg/m3
viscosity (391.57 K, 196130 kPa): 5.188 ± 0.21 mPa·s
mass density (432.13 K, 98 kPa): 1014.59 ± 6.1 kg/m3
viscosity (432.13 K, 98 kPa): 1.172 ± 0.048 mPa·s
mass density (432.65 K, 98060 kPa): 1067.76 ± 6.4 kg/m3
viscosity (432.65 K, 98060 kPa): 1.884 ± 0.077 mPa·s
mass density (432.68 K, 196130 kPa): 1102.63 ± 6.6 kg/m3
viscosity (432.68 K, 196130 kPa): 2.658 ± 0.11 mPa·s
mass density (432.76 K, 49030 kPa): 1041.87 ± 6.3 kg/m3
viscosity (432.76 K, 49030 kPa): 1.51 ± 0.062 mPa·s
mass density (472.77 K, 196130 kPa): 1075.84 ± 6.5 kg/m3
viscosity (472.77 K, 196130 kPa): 1.747 ± 0.072 mPa·s
mass density (472.82 K, 98060 kPa): 1035.69 ± 6.2 kg/m3
viscosity (472.82 K, 98060 kPa): 1.236 ± 0.051 mPa·s
mass density (473.06 K, 49030 kPa): 1003.66 ± 6 kg/m3
viscosity (473.06 K, 49030 kPa): 1.008 ± 0.041 mPa·s
mass density (473.1 K, 98 kPa): 965.58 ± 5.8 kg/m3
viscosity (473.1 K, 98 kPa): 0.716 ± 0.029 mPa·s

OCCOCCO [diethylene glycol] + OCCO
mass density (298.15 K, 98 kPa): 1112.21 ± 6.7 kg/m3
viscosity (298.15 K, 98 kPa): 21.12 ± 0.86 mPa·s
mass density (298.15 K, 49030 kPa): 1135.06 ± 6.8 kg/m3
viscosity (298.15 K, 49030 kPa): 28.23 ± 1.1 mPa·s
mass density (298.15 K, 98060 kPa): 1151.37 ± 6.9 kg/m3
viscosity (298.15 K, 98060 kPa): 36.95 ± 1.5 mPa·s
mass density (298.15 K, 196130 kPa): 1178.94 ± 7.1 kg/m3
viscosity (298.15 K, 196130 kPa): 60.47 ± 2.4 mPa·s
mass density (322.33 K, 49030 kPa): 1121.67 ± 6.7 kg/m3
viscosity (322.33 K, 49030 kPa): 10.74 ± 0.44 mPa·s
mass density (322.34 K, 98 kPa): 1097.38 ± 6.6 kg/m3
viscosity (322.34 K, 98 kPa): 8.316 ± 0.34 mPa·s
mass density (332.21 K, 196130 kPa): 1162.18 ± 7 kg/m3
viscosity (332.21 K, 196130 kPa): 20.76 ± 0.85 mPa·s
mass density (332.33 K, 98060 kPa): 1132.91 ± 6.8 kg/m3
viscosity (332.33 K, 98060 kPa): 13.57 ± 0.55 mPa·s
mass density (353.8 K, 196130 kPa): 1150.15 ± 6.9 kg/m3
viscosity (353.8 K, 196130 kPa): 7.683 ± 0.31 mPa·s
mass density (353.83 K, 98 kPa): 1075.19 ± 6.5 kg/m3
viscosity (353.83 K, 98 kPa): 3.488 ± 0.14 mPa·s
mass density (353.87 K, 49030 kPa): 1101.62 ± 6.6 kg/m3
viscosity (353.87 K, 49030 kPa): 4.407 ± 0.18 mPa·s
mass density (354.1 K, 98060 kPa): 1119.74 ± 6.7 kg/m3
viscosity (354.1 K, 98060 kPa): 5.334 ± 0.22 mPa·s
mass density (392.87 K, 98 kPa): 1043.14 ± 6.3 kg/m3
viscosity (392.87 K, 98 kPa): 1.641 ± 0.067 mPa·s
mass density (393.06 K, 49030 kPa): 1072.66 ± 6.4 kg/m3
viscosity (393.06 K, 49030 kPa): 1.986 ± 0.081 mPa·s
mass density (393.3 K, 98060 kPa): 1093.17 ± 6.6 kg/m3
viscosity (393.3 K, 98060 kPa): 2.36 ± 0.096 mPa·s
mass density (393.6 K, 196130 kPa): 1126.12 ± 6.8 kg/m3
viscosity (393.6 K, 196130 kPa): 3.232 ± 0.13 mPa·s
mass density (435.93 K, 49030 kPa): 1035.82 ± 6.2 kg/m3
viscosity (435.93 K, 49030 kPa): 1.09 ± 0.044 mPa·s
mass density (435.98 K, 98060 kPa): 1060.12 ± 6.4 kg/m3
viscosity (435.98 K, 98060 kPa): 1.293 ± 0.053 mPa·s
mass density (436.08 K, 98 kPa): 1001.82 ± 6 kg/m3
viscosity (436.08 K, 98 kPa): 0.885 ± 0.036 mPa·s
mass density (436.13 K, 196130 kPa): 1097.25 ± 6.6 kg/m3
viscosity (436.13 K, 196130 kPa): 1.731 ± 0.07 mPa·s
mass density (462.52 K, 98060 kPa): 1037.39 ± 6.2 kg/m3
viscosity (462.52 K, 98060 kPa): 0.989 ± 0.04 mPa·s
mass density (462.54 K, 196130 kPa): 1077.67 ± 6.5 kg/m3
viscosity (462.54 K, 196130 kPa): 1.313 ± 0.053 mPa·s
mass density (462.73 K, 49030 kPa): 1011.05 ± 6.1 kg/m3
viscosity (462.73 K, 49030 kPa): 0.791 ± 0.032 mPa·s
mass density (462.75 K, 98 kPa): 973.24 ± 5.8 kg/m3
viscosity (462.75 K, 98 kPa): 0.671 ± 0.027 mPa·s

OCCOCCOCCO [triethylene glycol] + OCCO
mass density (298.13 K, 98 kPa): 1115.1 ± 6.7 kg/m3
viscosity (298.13 K, 98 kPa): 26.24 ± 1.1 mPa·s
mass density (298.15 K, 49030 kPa): 1136.47 ± 6.8 kg/m3
viscosity (298.15 K, 49030 kPa): 35.89 ± 1.5 mPa·s
mass density (298.15 K, 98060 kPa): 1152.73 ± 6.9 kg/m3
viscosity (298.15 K, 98060 kPa): 48.05 ± 2 mPa·s
mass density (298.15 K, 196130 kPa): 1180.8 ± 7.1 kg/m3
viscosity (298.15 K, 196130 kPa): 82.26 ± 3.6 mPa·s
mass density (322 K, 196130 kPa): 1169.4 ± 7 kg/m3
viscosity (322 K, 196130 kPa): 27.05 ± 1.1 mPa·s
mass density (322.25 K, 98060 kPa): 1139.05 ± 6.8 kg/m3
viscosity (322.25 K, 98060 kPa): 17.16 ± 0.7 mPa·s
mass density (322.32 K, 49030 kPa): 1121.83 ± 6.7 kg/m3
viscosity (322.32 K, 49030 kPa): 13.34 ± 0.55 mPa·s
mass density (322.36 K, 98 kPa): 1101.75 ± 6.6 kg/m3
viscosity (322.36 K, 98 kPa): 10.13 ± 0.42 mPa·s
mass density (355.34 K, 98 kPa): 1079 ± 6.5 kg/m3
viscosity (355.34 K, 98 kPa): 3.999 ± 0.16 mPa·s
mass density (355.56 K, 49030 kPa): 1099.04 ± 6.6 kg/m3
viscosity (355.56 K, 49030 kPa): 5.082 ± 0.21 mPa·s
mass density (355.67 K, 98060 kPa): 1118.11 ± 6.7 kg/m3
viscosity (355.67 K, 98060 kPa): 6.302 ± 0.26 mPa·s
mass density (355.76 K, 196130 kPa): 1151.43 ± 6.9 kg/m3
viscosity (355.76 K, 196130 kPa): 9.251 ± 0.38 mPa·s
mass density (392.2 K, 98 kPa): 1047.37 ± 6.3 kg/m3
viscosity (392.2 K, 98 kPa): 1.946 ± 0.08 mPa·s
mass density (392.33 K, 49030 kPa): 1070.25 ± 6.4 kg/m3
viscosity (392.33 K, 49030 kPa): 2.418 ± 0.099 mPa·s
mass density (392.39 K, 98060 kPa): 1092.45 ± 6.6 kg/m3
viscosity (392.39 K, 98060 kPa): 2.907 ± 0.12 mPa·s
mass density (392.77 K, 196130 kPa): 1129.25 ± 6.8 kg/m3
viscosity (392.77 K, 196130 kPa): 4.045 ± 0.17 mPa·s
mass density (434.54 K, 98060 kPa): 1059.58 ± 6.4 kg/m3
viscosity (434.54 K, 98060 kPa): 1.581 ± 0.065 mPa·s
mass density (434.56 K, 49030 kPa): 1032.55 ± 6.2 kg/m3
viscosity (434.56 K, 49030 kPa): 1.33 ± 0.054 mPa·s
mass density (434.59 K, 98 kPa): 1002.88 ± 6 kg/m3
viscosity (434.59 K, 98 kPa): 1.058 ± 0.043 mPa·s
mass density (434.7 K, 196130 kPa): 1101.01 ± 6.6 kg/m3
viscosity (434.7 K, 196130 kPa): 2.158 ± 0.088 mPa·s
mass density (462.27 K, 196130 kPa): 1080.63 ± 6.5 kg/m3
viscosity (462.27 K, 196130 kPa): 1.616 ± 0.066 mPa·s
mass density (462.4 K, 49030 kPa): 1004.97 ± 6 kg/m3
viscosity (462.4 K, 49030 kPa): 0.996 ± 0.041 mPa·s
mass density (462.47 K, 98060 kPa): 1035.79 ± 6.2 kg/m3
viscosity (462.47 K, 98060 kPa): 1.196 ± 0.049 mPa·s
mass density (462.61 K, 98 kPa): 968.72 ± 5.8 kg/m3
viscosity (462.61 K, 98 kPa): 0.705 ± 0.029 mPa·s
